Assay results: patent US5359063A, “Heterocyclene derivatives” (Imperial Chemical Industries PLC, priority 1990, dated 1994)

Assays:
5-LO [1] = assay: Test b) LTB4 in heparinised human blood challenged with calcium ionophore A23187 (radioimmunoassay); format: cell-based
Method: b) An in vitro assay system involving incubating a test compound with heparinised human blood, prior to challenge with the calcium ionophore A23187 and then indirectly measuring the inhibitory effects on 5-LO by assaying the amount of LTB4 using specific radioimmunoassays described by Carey and Forder (F. Carey and R. A. Forder, Prostaglandins, Leukotrienes Med., 1986, 22, 57; Prostaglandins, 1984, 28, 666; Brit. J. Pharmacol. 1985, 84, 34P) which involve the use of a protein-LTB4 conjugate produced using the procedure of Young et alia (Prostaglandins, 1983, 26(4), 605-613). The effects of a test compound on the enzyme cyclooxygenase (which is involved in the alternative metabolic pathway for arachidonic acid and gives rise to prostaglandins, thromboxanes and related metabolites) may be measured at the same time using the specific radioimmunoassay for thromboxane B2 (TxB2) described by Carey and Forder (see above). This test provides an indication of the effects of a test compound against 5-LO and also cyclooxygenase in the presence of blood cells and proteins. It permits the selectivity of the inhibitory effect on 5-LO or cyclooxygenase to be assessed.

5-LO [2] = assay: Test g) LTB4 liberation induced by zymosan within an air pouch in male rats; format: in vivo; details: 3 h; test g), rat air pouch, oral
Method: g) An in vivo system involving measuring the effects of a test compound administered orally against the liberation of LTB4 induced by zymosan within an air pouch generated within the subcutaneous tissue of the back of male rats. The rats are anaesthetised and air pouches are formed by the injection of sterile air (20 ml). A further injection of air (10 ml) is similarIv given after 3 days. At 6 days after the initial air injection the test compound is administered (usually orally as the suspension produced when a solution of the test compound in dimethylsulphoxide is added to hydroxypropylmethylcellulose), followed by the intrapouch injection of zymosan (1 ml of a 1% suspension in physiological saline). After 3 hours the rats are killed, the air pouches are lavaged with physiological saline, and the specific radioimmunoassay described above is used to assay LTB4 in the washings. This test provides an indication of inhibitory effects against 5-LO in an inflammatory milieu.

COC1(c2ccc(Sc3ccc(C(C)(C)C)cc3)s2)CCOCC1 [4-[5-(4-tert-butylphenylthio)thien-2-yl]-4-methoxytetrahydropyran]
IC50 (5-LO [1]): 150 nM
ED50 (5-LO [2]): 1.5 mg/kg

COC1(c2ccc(Sc3ccc4c(c3)CCC(=O)N4C)s2)CCOCC1 [4-methoxy-4-[5-(1-methyl-2-oxo-1,2,3,4-tetrahydroquinolin-6-ylthio)thien-2-yl]tetrahydropyran]
IC50 (5-LO [1]): 40 nM
ED50 (5-LO [2]): < 1.5 mg/kg
